Data as given in patent US11116760B2 (Gilead Sciences, Inc., priority 2018, dated 2021).

Target: α4β7 integrin (Homo sapiens (Human), UniProt P13612+P26010)
Experiment: α4β7 Integrin Cell Capture Assay
Format: cell-based
Details: RPMI8866 cells captured on MadCAM-1 extracellular domain-coated plate

Chain of α4β7 integrin (P13612 34-1032): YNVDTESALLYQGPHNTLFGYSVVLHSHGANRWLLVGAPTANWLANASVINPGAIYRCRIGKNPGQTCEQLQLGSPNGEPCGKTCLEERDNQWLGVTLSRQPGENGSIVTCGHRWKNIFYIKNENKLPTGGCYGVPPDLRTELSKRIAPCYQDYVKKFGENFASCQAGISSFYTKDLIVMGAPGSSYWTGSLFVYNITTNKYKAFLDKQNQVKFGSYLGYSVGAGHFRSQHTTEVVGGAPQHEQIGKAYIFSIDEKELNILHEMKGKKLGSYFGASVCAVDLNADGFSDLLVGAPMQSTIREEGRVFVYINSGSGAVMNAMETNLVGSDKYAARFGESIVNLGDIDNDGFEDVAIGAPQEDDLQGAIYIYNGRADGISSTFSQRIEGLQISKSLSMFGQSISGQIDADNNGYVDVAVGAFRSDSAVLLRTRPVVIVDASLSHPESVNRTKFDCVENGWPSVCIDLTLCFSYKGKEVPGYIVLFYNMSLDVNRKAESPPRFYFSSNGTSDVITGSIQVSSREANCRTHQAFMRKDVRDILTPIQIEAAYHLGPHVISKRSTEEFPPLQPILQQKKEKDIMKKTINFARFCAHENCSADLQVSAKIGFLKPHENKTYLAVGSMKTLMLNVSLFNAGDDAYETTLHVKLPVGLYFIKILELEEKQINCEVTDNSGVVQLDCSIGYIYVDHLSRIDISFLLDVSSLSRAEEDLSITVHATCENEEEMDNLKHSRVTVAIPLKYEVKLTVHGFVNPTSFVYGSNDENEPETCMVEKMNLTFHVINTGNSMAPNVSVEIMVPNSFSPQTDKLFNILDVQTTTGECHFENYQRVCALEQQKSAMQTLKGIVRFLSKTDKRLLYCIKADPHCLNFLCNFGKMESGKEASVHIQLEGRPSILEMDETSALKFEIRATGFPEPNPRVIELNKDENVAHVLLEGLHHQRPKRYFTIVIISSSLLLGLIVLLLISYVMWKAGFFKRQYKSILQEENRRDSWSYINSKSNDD
Chain of α4β7 integrin (P26010 20-798): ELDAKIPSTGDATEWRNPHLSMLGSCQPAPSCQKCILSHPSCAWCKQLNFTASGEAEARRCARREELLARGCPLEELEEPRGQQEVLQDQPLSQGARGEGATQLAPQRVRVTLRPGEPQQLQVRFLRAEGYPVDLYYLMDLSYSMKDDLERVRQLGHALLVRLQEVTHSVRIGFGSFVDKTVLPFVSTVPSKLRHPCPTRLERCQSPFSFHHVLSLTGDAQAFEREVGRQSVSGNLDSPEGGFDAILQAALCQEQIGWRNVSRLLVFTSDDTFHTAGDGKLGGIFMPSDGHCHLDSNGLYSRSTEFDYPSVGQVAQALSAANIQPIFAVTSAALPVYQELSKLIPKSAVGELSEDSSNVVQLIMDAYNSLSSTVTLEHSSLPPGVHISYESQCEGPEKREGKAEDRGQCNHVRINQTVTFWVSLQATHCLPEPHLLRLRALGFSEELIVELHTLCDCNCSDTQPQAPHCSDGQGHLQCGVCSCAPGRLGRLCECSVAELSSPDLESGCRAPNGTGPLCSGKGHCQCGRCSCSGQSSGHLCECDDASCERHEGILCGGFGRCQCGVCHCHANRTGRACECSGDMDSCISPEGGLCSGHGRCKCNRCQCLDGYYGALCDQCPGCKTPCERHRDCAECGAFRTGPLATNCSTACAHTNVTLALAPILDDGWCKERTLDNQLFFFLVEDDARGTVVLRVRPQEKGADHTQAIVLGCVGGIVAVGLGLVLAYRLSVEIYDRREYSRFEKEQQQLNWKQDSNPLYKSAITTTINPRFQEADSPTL

Row | Molecule | EC50
1 | Cc1cc(N2CCOC[C@@H]2C(F)(F)F)cc(F)c1C(=O)N[C@@H](Cc1cc(F)c(-c2cc3cnccc3n(C)c2=O)c2ncccc12)C(=O)O [Example 464] | 0.13 nM
2 | Cc1cnc(-c2c(F)cc(C[C@H](NC(=O)c3c(C)cc(N4CCOC[C@@H]4C(F)(F)F)cc3F)C(=O)O)c3cccnc23)nc1C [Example 465] | 1.53 nM
3 | Cc1cc(N2CCOC3(CC3)C2)cc(F)c1C(=O)N[C@@H](Cc1ccc(-c2c(C(F)(F)F)cc(C)n(C)c2=O)c2ncccc12)C(=O)O [Example 466] | 0.581 nM
4 | Cc1cc(N2CCOC[C@@H]2C(F)(F)F)cc(F)c1C(=O)N[C@@H](Cc1ccc(-c2cnc(C)n(C)c2=O)c2ncccc12)C(=O)O [Example 467] | 0.238 nM
5 | Cc1cc(C(F)(F)F)c(-c2ccc(C[C@H](NC(=O)c3c(F)cc(N4CCO[C@@H](C)[C@@H]4C(F)(F)F)cc3F)C(=O)O)c3cccnc23)c(=O)n1C [Example 468] | 0.189 nM
6 | Cc1cc(N2CCOC[C@@H]2C(F)(F)F)cc(F)c1C(=O)N[C@@H](Cc1ccc(-c2cc3cnccc3n(C)c2=O)c2ncccc12)C(=O)O [Example 469] | 0.103 nM
7 | Cc1cc(C(F)(F)F)c(-c2ccc(C[C@H](NC(=O)c3c(F)cc(N4CCOC[C@@H]4C(F)(F)F)cc3C(C)C)C(=O)O)c3cccnc23)c(=O)n1C [Example 470] | 0.181 nM
8 | CCc1cc(N2CCOC[C@@H]2C(F)(F)F)cc(F)c1C(=O)N[C@@H](Cc1ccc(-c2c(C(F)(F)F)cc(C)n(C)c2=O)c2ncccc12)C(=O)O [Example 471] | 0.179 nM
9 | Cc1cc(C(F)(F)F)c(-c2ccc(C[C@H](NC(=O)c3c(F)cc(N4CCc5ccccc5[C@@H]4C(F)(F)F)cc3F)C(=O)O)c3cccnc23)c(=O)n1C [Example 472] | 0.331 nM
10 | Cn1c(=O)n(-c2ccc(C[C@H](NC(=O)c3c(F)cc(N4CCOC[C@@H]4C(F)(F)F)cc3F)C(=O)O)c3cccnc23)c(=O)c2cnccc21 [Example 473] | 0.196 nM
11 | Cn1c(=O)n(-c2ccc(C[C@H](NC(=O)c3c(F)cc(N4CCOC[C@@H]4C(F)(F)F)cc3F)C(=O)O)c3cccnc23)c(=O)c2ccncc21 [Example 474] | 0.112 nM
12 | CC[C@@H](Nc1cc(F)c(C(=O)N[C@@H](Cc2ccc(-n3c(=O)c4ccncc4n(C)c3=O)c3ncccc23)C(=O)O)c(F)c1)C(F)(F)F [Example 475] | 0.157 nM
13 | Cc1cc(N2CC(F)(F)C2)c(-c2ccc(C[C@H](NC(=O)c3c(F)cc(N4CCOC[C@@H]4C(F)(F)F)cc3F)C(=O)O)c3cccnc23)c(=O)n1C [Example 476] | 0.337 nM
14 | Cc1cc(N2CCOC[C@@H]2C(F)(F)F)cc(F)c1C(=O)N[C@@H](Cc1ccc(-c2nc(C)c(C)n(C)c2=O)c2ncccc12)C(=O)O [Example 477] | 0.115 nM
15 | CN(C)c1ccc2c(c1)c(=O)n(-c1ccc(C[C@H](NC(=O)c3c(F)cc(N4CCOC[C@@H]4C(F)(F)F)cc3F)C(=O)O)c3cccnc13)c(=O)n2C [Example 478] | 0.394 nM
16 | CC[C@@H](Nc1cc(F)c(C(=O)N[C@@H](Cc2ccc(-c3c(C(F)(F)F)n(C)cc(C)c3=O)c3ncccc23)C(=O)O)c(F)c1)C(F)(F)F [Example 479] | 1.19 nM
17 | Cc1cc(C(F)(F)F)c(-c2ccc(C[C@H](NC(=O)c3c(F)cc(N4C[C@H]5C[C@@H]4CO5)cc3F)C(=O)O)c3cccnc23)c(=O)n1C [Example 480] | 0.297 nM
18 | CC[C@@H](Nc1cc(F)c(C(=O)N[C@@H](Cc2ccc(-c3cc(OC)cn(C)c3=O)c3ncccc23)C(=O)O)c(F)c1)C(F)(F)F [Example 481] | 1.48 nM
19 | Cc1cnc(-c2ccc(C[C@H](NC(=O)c3c(C)cc(N4CCOC[C@@H]4C(F)(F)F)cc3F)C(=O)O)c3cccnc23)nc1C [Example 482] | 1.5 nM
20 | Cc1cc(C(F)(F)F)c(-c2ccc(C[C@H](NC(=O)c3c(F)cc(N4C[C@H]5C[C@H]5[C@@H]4C(F)(F)F)cc3F)C(=O)O)c3cccnc23)c(=O)n1C [Example 483] | 0.544 nM
21 | Cn1c(=O)c(-c2ccc(C[C@H](NC(=O)c3c(F)cc(N4CCOC[C@@H]4C(F)(F)F)cc3F)C(=O)O)c3cccnc23)nc2ccccc21 [Example 484] | 0.143 nM

Same assay, conditions: Table 1; capture of α4β7 expressing RPM18866 cells on MadCAM-1 extracellular domain-coated plate

Row | Molecule | EC50
22 | (S)-3-(8-(2-chloro-4-cyanophenyl)quinolin-5-yl)-2-(2,6-difluoro-4-((phenoxycarbonyl)amino)benzamido)propanoic acid [Example 41] | 7.7 nM
